For orientation: Kd means the concentration at which binding is half-saturated.

Some results are limits rather than exact numbers.

In this assay the target is JAK2 (JH1 domain-catalytic, Y1007F, Y1008F) kinase (Homo sapiens (Human), UniProt O60674, Y1007F/Y1008F). Briefly: JAK2 JH1 Domain Binding Assay. Particulars: qPCR readout. Put shortly: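 Competitive binding format: test compound, DNA-tagged JAK2 JH1 (Y1007F/Y1008F; HEK293-expressed NFkB fusion) and ligand-coated magnetic beads incubated 1 h at room temperature. Kinase retained on beads released with 0.5 μmol/L non-biotinylated ligand, then measured by qPCR.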
JAK2 (JH1 domain-catalytic, Y1007F, Y1008F) kinase, sequence (O60674 849-1124 Y1007F/Y1008F): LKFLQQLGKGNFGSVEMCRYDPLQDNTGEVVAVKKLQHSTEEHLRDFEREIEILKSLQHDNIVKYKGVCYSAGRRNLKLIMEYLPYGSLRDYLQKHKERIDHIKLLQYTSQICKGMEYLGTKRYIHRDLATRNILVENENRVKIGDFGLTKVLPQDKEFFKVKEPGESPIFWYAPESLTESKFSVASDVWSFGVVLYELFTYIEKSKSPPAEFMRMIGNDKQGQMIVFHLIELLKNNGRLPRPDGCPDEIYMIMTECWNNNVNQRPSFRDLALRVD
In turn, `CNc1n[nH]c2ncc(N3CC[C@@H](N(C)C(=O)Nc4cc(C(F)(F)F)cn(C)c4=O)[C@@H](F)C3)cc12` [Example I-97-a, 1-((3S,4R)-3-fluoro-1-(3-(methylamino)-1H-pyrazolo[3,4-b]pyridin-5-yl)piperidin-4-yl)-1-methyl-3-(1-methyl-2-oxo-5-(trifluoromethyl)-1,2-dihydropyridin-3-yl)urea] returned a dissociation constant (Kd) of under 10 nM.

`CC(=O)N1CCC(c2n[nH]c3ncc(N4CC[C@H](N(C)C(=O)Nc5cc(C(F)(F)F)cn(C)c5=O)C(F)(F)C4)cc23)CC1` (single isomer, unassigned) [Example I-123-b] displayed a Kd of under 10 nM.

Consider `CN(C(=O)Nc1cc(C(F)(F)F)ccn1)[C@H]1CCN(c2cnc3[nH]ncc3c2)CC1(F)F` (mixture of isomers) [Example I-146-b, (R)-1-(3,3-difluoro-1-(1H-pyrazolo[3,4-b]pyridin-5-yl)piperidin-4-yl)-1-methyl-3-(4-(trifluoromethyl)pyridin-2-yl)urea and (S)-1-(3,3-difluoro-1-(1H-pyrazolo[3,4-b]pyridin-5-yl)piperidin-4-yl)-1-methyl-3-(4-(trifluoromethyl)pyridin-2-yl)urea], for which the Kd was under 10 nM.

On to `CN(C(=O)Nc1cc(C(F)(F)F)cn(C)c1=O)C1CCN(c2cnc3[nH]ncc3n2)CC1` [Example I-68, 1-(1-(1H-pyrazolo[3,4-b]pyrazin-5-yl)piperidin-4-yl)-1-methyl-3-(1-methyl-2-oxo-5-(trifluoromethyl)-1,2-dihydropyridin-3-yl)urea], for which the Kd is under 10 nM.

On to `COCc1cc2nc(N3CC[C@H](N(C)C(=O)Nc4cc(C(F)(F)F)cn(C)c4=O)[C@H](F)C3)cnc2[nH]1` [Example I-111-b, 1-((3R,4S)-3-fluoro-1-(6-(methoxymethyl)-5H-pyrrolo[2,3-b]pyrazin-2-yl)piperidin-4-yl)-1-methyl-3-(1-methyl-2-oxo-5-(trifluoromethyl)-1,2-dihydropyridin-3-yl)urea], for which the Kd was under 10 nM.

In the case of `C[C@H]1CN(C(=O)Nc2cc(C(F)(F)F)cn(C)c2=O)C2(CCN(c3cnc4[nH]ccc4n3)CC2)C1` (single isomer, unassigned) [Example I-53-b], the Kd was 50 to 1000 nM.

The molecule `Cc1c[nH]c2ncc(N3CCC(N(C)C(=O)Nc4cc(C(F)(F)F)cn(C)c4=O)C(F)(F)C3)nc12` (single isomer, unassigned) [Example I-33-a, (R)- or (S)-1-(3,3-difluoro-1-(7-methyl-5H-pyrrolo[2,3-b]pyrazin-2-yl)piperidin-4-yl)-1-methyl-3-(1-methyl-2-oxo-5-(trifluoromethyl)-1,2-dihydropyridin-3-yl)urea] had a dissociation constant (Kd) of under 10 nM.

`COc1n[nH]c2ncc(N3CC[C@H]4[C@H](C3)OCCN4C(=O)Nc3cc(C(F)(F)F)cn(C)c3=O)cc12` (single isomer, unassigned) [Example I-169-a] gave a Kd of 10 to 50 nM.

`COc1n[nH]c2ncc(N3CC[C@H](N(C)C(=O)Nc4cc(C(F)(F)F)cn(C)c4=O)[C@H](F)C3)cc12` [Example I-87-b, 1-((3R,4S)-3-fluoro-1-(3-methoxy-1H-pyrazolo[3,4-b]pyridin-5-yl)piperidin-4-yl)-1-methyl-3-(1-methyl-2-oxo-5-(trifluoromethyl)-1,2-dihydropyridin-3-yl)urea] displayed a dissociation constant (Kd) of under 10 nM.

Turning to `CN(C(=O)Nc1cc(C(F)(F)F)cn(C)c1=O)C1CCN(c2cnc3[nH]c(=O)[nH]c3c2)CC1` [Example I-76, 1-methyl-3-(1-methyl-2-oxo-5-(trifluoromethyl)-1,2-dihydropyridin-3-yl)-1-(1-(2-oxo-2,3-dihydro-1H-imidazo[4,5-b]pyridin-6-yl)piperidin-4-yl)urea], the dissociation constant Kd was under 10 nM.

Consider `CN(C(=O)Nc1cc(C(F)(F)F)cn(C)c1=O)[C@H]1[C@@H]2CC[C@H]1CN(c1cnc3[nH]ncc3c1)C2` [Example I-80, 1-(3-(1H-pyrazolo[3,4-b]pyridin-5-yl)-3-azabicyclo[3.2.1]octan-8-yl)-1-methyl-3-(1-methyl-2-oxo-5-(trifluoromethyl)-1,2-dihydropyridin-3-yl)urea], for which the Kd fell in the range of 10 to 50 nM.

Source of the values: US20240116892A1, “HETEROCYCLIC AMIDE AND UREA COMPOUNDS AS JAK2 INHIBITORS” (Ajax Therapeutics, Inc., priority 2022, published 2024).
